From US7919458B2, “Method of inhibiting prostate cancer cell proliferation” (Scott, Kieran, Francis, priority 2002, dated 2011)
Non-standard residues stand in square brackets, D forms with d. 2Nal = N[C@@H](Cc1ccc2ccccc2c1)C(=O)O

T1: human sPLA2-IIA (Homo sapiens, UniProt P14555)
T1 sequence (P14555 21-144): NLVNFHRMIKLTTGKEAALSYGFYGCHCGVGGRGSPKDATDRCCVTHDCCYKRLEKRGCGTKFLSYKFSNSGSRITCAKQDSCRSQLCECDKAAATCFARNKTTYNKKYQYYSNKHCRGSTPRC


Key:
[1] = target: T1, human sPLA2-IIA; settings: previously published work (Tseng et al. 1996; Church et al. 2001); cited from earlier work
[2] = test system: DU145; experiment: MTS cell growth assay, unstimulated DU145 cells; type: cell-based, human; settings: 1-100 nM, 72 hours, sPLA2-IIA mRNA undetectable
Procedure: (§1) FIG. 4. Effect of sPLA2-IIA inhibition on unstimulated prostate cancer cells. (A) The endogenous expression of sPLA2-IIA mRNA was evaluated by RT-PCR in three unstimulated prostate cancer cell lines (LNCaP, DU145 and PC-3) grown in RPMI containing 5% FCS. HPRT was used to as a positive control for RNA integrity and loading. (B) Cells were grown in RPMI with 5% FCS were then treated for 72 hours in the presence and absence of the sPLA2-IIA inhibitor c(2Nap)LS(2Nap)R and cell number determined by MTS assay as described in Materials and Methods. Data are mean±SD of quadruplicate determinations expressed as percentages relative to untreated control cells (100%). LNCaP, closed bars, OD495 untreated cells 0.50±0.03; DU145, open bars, OD495 untreated cells 0.73±0.05; PC-3, hatched bars, OD495 untreated cells, 0.66±0.01. *p<0.05 vs untreated control by one-way ANOVA.
Cell Lines and Culture. The LNCaP, DU145 and PC3 cell lines were purchased from American Type Culture Collection (Rockville, Md.). […]
(§2) Cell growth assay. […] After treatment, the number of viable cells was determined using the MTS assay (CellTiter 96® AQueous Assay; Promega, Madison, Wis.). […] The absorbance at 490 nm was measured with an ELISA microplate reader. […]
To test the effect of blocking endogenous sPLA2-IIA on cell growth, we firstly determined the basal mRNA levels of sPLA2-IIA in 3 human prostate cancer cell lines. […]

[3] = test system: PC-3; experiment: MTS cell growth assay, unstimulated PC-3 cells; type: cell-based, human; settings: 72 hours; for Proliferation of unstimulated PC-3 cells: 1-100 nM, endogenous sPLA2-IIA; for Smallest effective dose, PC-3 proliferation: doses 1-100 nM
Procedure: as §1
(§3) Cell Lines and Culture. The LNCaP, DU145 and PC3 cell lines were purchased from American Type Culture Collection (Rockville, Md.). All cell cultures were maintained in RPMI 1640 supplemented with 5% FBS for LNCaP and 10% FBS for DU145 and PC3 at 37° C. in a humidified environment of 5% CO2. For experiments with addition of androgens, cells were cultured in RPMI 1640 without phenol red and supplemented with same concentration of charcoal stripped FBS. For experiments described in this article, we used cells between passage 30 and 45 for LNCaP, 65 and 80 for DU145 and 25 and 40 for PC3.
(§4) Cell growth assay. Cells were plated at 1×10^4 per well in 96-well plates with 0.1 ml of FBS-supplemented RPMI. After reaching 70-80% confluence (about 48 hours), the medium was changed to that containing various treatments for 3 days. After treatment, the number of viable cells was determined using the MTS assay (CellTiter 96® AQueous Assay; Promega, Madison, Wis.). In brief, 20 ul of MTS solution was added to each well and cells were incubated for 1 h. The absorbance at 490 nm was measured with an ELISA microplate reader. Each experiment was performed in quadruplicate and repeated at least three times.
(§5) To test the effect of blocking endogenous sPLA2-IIA on cell growth, we firstly determined the basal mRNA levels of sPLA2-IIA in 3 human prostate cancer cell lines. The androgen-independent cell lines PC-3 and DU145 cells were included in the study to also exclude a possible general toxicity of the inhibitors. mRNA encoding sPLA2-IIA was undetectable in DU-145 compared with LNCaP and PC-3 cells (FIG. 4A). We then tested the effect of individual inhibitors cFLSYR (SEQ ID NO: 6) and c(2Nap)LS(2Nap) R on cell growth over a range of doses (1-100 nM). […] The low but effective dosage and its specificity for cell lines containing endogenous sPLA2-IIA only, indicate that non-specific cell toxicity is not likely to explain the inhibitory effect.

[4] = test system: LNCaP; experiment: MTS cell growth assay, unstimulated LNCaP cells; type: cell-based, human; settings: 72 hours; for Proliferation of unstimulated LNCaP cells: 1-100 nM, endogenous sPLA2-IIA; for Smallest effective dose, LNCaP proliferation: doses 1-100 nM
Procedure: as §1, §3, §4, §5

[5] = test system: LNCaP cells; experiment: MTS cell growth assay, inhibition of sPLA2-IIA-stimulated LNCaP proliferation; type: cell-based, human; settings: fixed sPLA2-IIA (1 nM), 72 hours, increasing inhibitor concentrations
Procedure: (§6) FIG. 2. Effect of exogenous addition of sPLA2-IIA on prostate cell growth. LNCaP cells were grown in RPMI with 5% FCS and treated for 72 hours in media containing (A) increasing concentrations of sPLA2-IIA alone (closed bars) or increasing concentrations of the activity-dead sPLA2-IIA mutant H48Q. (B) a fixed concentration of sPLA2-IIA and increasing concentrations of the sPLA2-IIA inhibitor cFLSYR (SEQ ID NO: 6). Cell number relative to untreated control cells was determined by the MTS assay as described in Materials and Methods. Data are Mean±SD of quadruplicate determinations normalised to 100% for untreated cells. OD495 of unstimulated cells was 0.29±0.06 for sPLA2-IIA and 0.24±0.03 for the sPLA2-IIA mutant experiments in panel A and 0.24±0.03 for panel B. *p<0.05 vs untreated control by one-way ANOVA. Data are representative of three separate experiments. (C). […]
FIG. 3. […] Cell number was determined by the MTS assay as described in Materials and Methods. Data are mean±SD of quadruplicate determinations expressed as percentages relative to untreated control cells (100%) (open bar). […]
as §2

[6] = test system: LNCaP cells; experiment: Flow cytometric cell cycle analysis (propidium iodide) of LNCaP cells; type: cell-based, human
Procedure: FIG. 2. Effect of exogenous addition of sPLA2-IIA on prostate cell growth. LNCaP cells were grown in RPMI with 5% FCS and treated for 72 hours in media containing (A) increasing concentrations of sPLA2-IIA alone (closed bars) or increasing concentrations of the activity-dead sPLA2-IIA mutant H48Q. (B) a fixed concentration of sPLA2-IIA and increasing concentrations of the sPLA2-IIA inhibitor cFLSYR (SEQ ID NO: 6). Cell number relative to untreated control cells was determined by the MTS assay as described in Materials and Methods. Data are Mean±SD of quadruplicate determinations normalised to 100% for untreated cells. OD495 of unstimulated cells was 0.29±0.06 for sPLA2-IIA and 0.24±0.03 for the sPLA2-IIA mutant experiments in panel A and 0.24±0.03 for panel B. *p<0.05 vs untreated control by one-way ANOVA. Data are representative of three separate experiments. (C). LNCaP cells were grown as above and stimulated for 72 hours with sPLA2-IIA (1 nM) in the absence (dotted lines) and presence (solid lines) of the sPLA2-IIA inhibitor cFLSYR (SEQ ID NO: 6) (100 nM). Cells (1×10^6) were assayed by flow cytometry following treatment with propidium iodide as described in Materials and Methods. Statistical analysis was performed on 10,000 events per sample. Data are representative of three separate experiments.
Flow Cytometric Analysis. Cells were seeded in 25 ml flasks in conditions as described above. Following treatment, trypsinization and cell counting, LNCaP cells (1×10^6) were suspended in 1 mL PBS and incubated with 0.2 mL 0.4% Triton® X-100 for 5 min at R/T in the presence of 50 μL of propidium iodide solution (50 μg/mL) and 20 μL of ribonuclease (10 mg/mL). DNA content per cell was measured by flow cytometry using an FACScalibur® flow cytometer and CellQuest® software (Becton Dickinson, Franklin Lakes, N.J.). Statistical analysis was performed on 10,000 events per sample.
We next used flow cytometric analysis to determine how sPLA2-IIA affects the distribution of LNCaP cells in different phases of the cell cycle. […]

[7] = test system: LNCaP cells; experiment: MTS cell growth assay, exogenous sPLA2-IIA added to LNCaP cells; type: cell-based, human; settings: 72 hours
Procedure: as §6, §2
To examine the biological relevance of sPLA2-IIA to prostate cancer cell growth, we treated LNCaP cells with increasing doses of human recombinant sPLA2-IIA and monitored cell growth. […]

Row | Molecule | Inhibition of human sPLA2-IIA in in vitro activity assays [1] | Effect on unstimulated DU145 cell growth [2] | Proliferation of unstimulated PC-3 cells [3] | Smallest effective dose, PC-3 proliferation [3] [nM] | Proliferation of unstimulated LNCaP cells [4] | Smallest effective dose, LNCaP proliferation [4] [nM] | Effect on sPLA2-IIA-stimulated LNCaP cell number/growth [5] | Proportion of cells in G1 and G2 phase with sPLA2-IIA plus inhibitor ([6]; sPLA2-IIA 1 nM plus cFLSYR 100 nM, 72 hours) | Proportion of LNCaP cells in G1 phase ([6]; sPLA2-IIA containing medium (1 nM), 72 hours, untreated 74%) [%] | Proportion of LNCaP cells in G2/M phase ([6]; sPLA2-IIA containing medium, in comparison to untreated cells) | Lowest dose stimulating LNCaP cell growth ([7]; MTS assay) [nM] | Effect of exogenously added protein on LNCaP cell growth (MTS) ([7]; RPMI with 5% FCS, relative to untreated cells)
1 | c(2NapA)LS(2NapA)R: cyclic peptide where F and Y are substituted with 2-naphthylalanine; sPLA2-IIA inhibitor (cyclo([2Nal]LS[2Nal]R); SMILES CC(C)C[C@@H]1NC(=O)[C@H](Cc2ccc3ccccc3c2)NC(=O)[C@H](CCCNC(=N)N)NC(=O)[C@H](Cc2ccc3ccccc3c2)NC(=O)[C@H](CO)NC1=O) | significant improvement in potency over linear peptides | neither of the inhibitors had an effect | significantly decreased | 1 | significantly decreased | 1 | – | – | – | – | – | –
2 | cFLSYR: cyclic peptide FLSYR, sPLA2-IIA inhibitor derived from residues 70-74 of human sPLA2-IIA (cyclic) | significant improvement in potency over linear peptides | neither of the inhibitors had an effect | significantly decreased | 1 | significantly decreased | 1 | completely blocked | returned to basal levels | – | – | – | –
3 | sPLA2-IIA: human recombinant sPLA2-IIA purified from Chinese hamster ovary cell conditioned media (protein, listed as Homo sapiens) MKTLLLLAVIMIFGLLQAHGNLVNFHRMIKLTTGKEAALSYGFYGCHCGVGGRGSPKDATDRCCVTHDCCYKRLEKRGCGTKFLSYKFSNSGSRITCAKQDSCRSQLCECDKAAATCFARNKTTYNKKYQYYSNKHCRGSTPRC | – | – | – | – | – | – | – | – | 62 | increase | 1 | dose-dependently stimulated LNCaP cell growth
